Where “and” joins values, the source holds several entries; their conditions need not be identical. Identical values can stand only once. Like-named read-outs stand apart in the source and are kept apart here. Marks after values point to notes of the source that are not given here.
Legend:
BBB = settings: cited from earlier work; for Transport across BBB: 2 h, 1 mM
transferrin endocytosis = settings: 10 mM; cited from earlier work
human keratinocytes = settings: cited from earlier work
[1] = rats, rabbits, dogs, and humans; cited from earlier work
Ab1-40/42 = settings: rats, stereotactical injection into the hippocampus; cited from earlier work
rats [2] = settings: rat; cited from earlier work
rats [3] = settings: […] daily; cited from earlier work
rats [4] = settings: cited from earlier work
human erythrocytes = settings: human erythrocytes; cited from earlier work
[5] = in vivo; cited from earlier work
MCF-7 cells = assay: Wound healing / gap closure migration assay (CytoSelect CBA-120); type: cell-based, human; settings: treated 2 hours
Method: (§1) Published results have shown that β-CD inhibits human MDA-MB 231 cell migration (Guerra et al. 2016). This inhibition was attributed to the ability of β-CD to “deplete cholesterol”. β-CD, however, depletes also phospholipids. […] Cells were cultured in 24-well culture plates (Cytoselect CBA-120, 0.9 mm wound healing/gap closure migration assay) for 24 hours with wound healing insert in place. […] Protocol: Warm up the 24-well plate (CBA-120, Cell BioLabs Inc.) with 0.9 mm CytoSelect Wound Healing Inserts at room temperature for 10 minutes. Using sterile forceps, orient the desired number of inserts in the plate wells with their “wound field” aligned in the same direction. Create a cell suspension containing 0.5-1.0×10^6 cells/ml in media containing 10% fetal bovine serum (FBS). Add 500 μL of cell suspension to each well by carefully inserting the pipette tip through the open end at the top of the insert. For optimal cell dispersion, add 250 μL of cell suspension to either side of the open ends at the top of the insert. Incubate cells in a cell culture incubator for 12-24 hours. Carefully remove the insert from the well to begin the wound healing assay. Use sterile forceps to grab and lift the insert slowly from the plate well. Slowly aspirate and discard the media from the wells. Wash wells with media to remove dead cells and debris. Finally, add media to wells to keep cells hydrated. Repeat wash if wells still have debris or unattached cells. When washing is complete, add media with FBS and/or compounds to continue cell culture and wound healing process. Agents that inhibit or stimulate cell migration can be added directly to the wells. Incubate cells in a cell culture incubator (2 hours) and then wash cells with PBS and then add fresh media without compounds. Incubate 12-24 hours before wash and fixing. Remove the fixation solution and add 400 μL of Cell Stain Solution to each well. Allow the stain to incubate with the cells for 15 minutes at room temperature. Aspirate and discard the solution. Carefully wash each stained well 3× with deionized water. Discard washes and allow cells to dry at room temperature. Cells that migrated into the wounded area or protruded from the border of the wound were visualized and photographed under an inverted microscope. Determine the surface area of the defined wound area: Total Surface Area=0.9 mm x length. Determine the surface area of the migrated cells into the wound area: Migrated Cell Surface Area=length of cell migration (mm)×2 x length. Percent Closure (%)=Migrated Cell Surface Area/Total Surface Area x 100.

MDA-MB-231 cells = assay: as above; type: cell-based, human; settings: treated 2 hours
Method: as §1

[6] = test system: MDA-MB 231 and MCF-7 human breast epithelial cell lines; assay: Wound healing assay, overall statements for both cell lines; type: cell-based
Method: as §1

[7] = Table 2; cited from earlier work
[8] = test system: human epithelial colorectal adenocarcinoma (Caco-2) cells; settings: cited from earlier work
[9] = biological target: BC resistance protein (BCRP/ABCG2) (Homo sapiens, UniProt Q9UNQ0); settings: cited from earlier work
BC resistance protein (BCRP/ABCG2), sequence (Q9UNQ0 whole entry): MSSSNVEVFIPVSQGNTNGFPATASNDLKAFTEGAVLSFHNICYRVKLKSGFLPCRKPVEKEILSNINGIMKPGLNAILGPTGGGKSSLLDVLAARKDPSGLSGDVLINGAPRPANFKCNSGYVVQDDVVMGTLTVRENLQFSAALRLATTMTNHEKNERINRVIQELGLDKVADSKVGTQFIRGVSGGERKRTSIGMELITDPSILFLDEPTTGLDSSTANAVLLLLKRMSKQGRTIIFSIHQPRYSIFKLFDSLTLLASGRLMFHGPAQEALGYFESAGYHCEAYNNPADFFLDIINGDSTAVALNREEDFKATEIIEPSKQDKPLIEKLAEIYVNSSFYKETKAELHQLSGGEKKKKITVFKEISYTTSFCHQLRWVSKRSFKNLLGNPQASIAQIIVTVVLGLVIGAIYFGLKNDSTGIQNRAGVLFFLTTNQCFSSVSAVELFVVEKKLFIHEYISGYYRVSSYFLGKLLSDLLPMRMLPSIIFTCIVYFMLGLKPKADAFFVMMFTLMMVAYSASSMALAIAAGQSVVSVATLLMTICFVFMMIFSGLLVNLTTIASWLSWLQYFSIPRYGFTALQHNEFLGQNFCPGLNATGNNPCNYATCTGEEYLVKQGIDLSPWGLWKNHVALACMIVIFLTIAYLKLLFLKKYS

[10] = test system: H7 Lewis lung cancer cell lines; settings: three H7 Lewis lung cancer cell lines; cited from earlier work
[11] = test system: BC and prostate cancer cell lines; settings: cancer cell lines vs normal counterparts; cited from earlier work
[12] = test system: MDA-MB-241 and ZR751 BC cells; settings: cited from earlier work
MCF7 BC cells = settings: cited from earlier work
urothelial cancer cells = settings: cited from earlier work
[13] = test system: RTK-[PIP2]-PI3K-[PIP3]-AKT signaling in HeLa cells; settings: cited from earlier work
leukemia cell lines = settings: cited from earlier work
mouse model of BC = settings: cited from earlier work
[14] = test system: H7-O Lewis lung cancer cells; settings: mice implanted with H7-O Lewis lung cancer cells; cited from earlier work
[15] = test system: primary effusion lymphoma (PEL); settings: mice; cited from earlier work
α-synuclein = settings: mice, neuronal cell body and synapses; cited from earlier work
MDA-MB-231 BC cells = settings: cited from earlier work

In the case of `OC[C@H]1O[C@@H]2O[C@H]3[C@H](O)[C@@H](O)[C@@H](O[C@H]4[C@H](O)[C@@H](O)[C@@H](O[C@H]5[C@H](O)[C@@H](O)[C@@H](O[C@H]6[C@H](O)[C@@H](O)[C@@H](O[C@H]7[C@H](O)[C@@H](O)[C@@H](O[C@H]8[C@H](O)[C@@H](O)[C@@H](O[C@H]1[C@H](O)[C@H]2O)O[C@@H]8CO)O[C@@H]7CO)O[C@@H]6CO)O[C@@H]5CO)O[C@@H]4CO)O[C@@H]3CO` [β-cyclodextrin, beta-cyclodextrin], the “Transport across BBB” value (BBB) is listed as 9.3 (1 mM) %, the BBB breakdown (BBB) is listed as 2.5 mM and the “reduction of transferrin endocytosis” value (transferrin endocytosis) is listed as 80%. For the same molecule, the apoptotic cell death (human keratinocytes) was “induces caspase-dependent apoptotic cell death”, the “steady-state volume of distribution” value [1] was “corresponds well with the extracellular fluid volume of each species” and the “toxicity of Ab1-40/42” value (Ab1-40/42) was “Toxicity of Ab1-40/42 was reduced”. For the same molecule, the LD50 (rats [2]) was 788 mg/kg, the “deaths, daily doses s.c.” value (rats [3]) was “no deaths” and the “acute i.v. toxicity in rats” value (rats [4]) was 1 g/kg.

For `OC[C@H]1O[C@@H]2O[C@H]3[C@H](O)[C@@H](O)[C@@H](O[C@H]4[C@H](O)[C@@H](O)[C@@H](O[C@H]5[C@H](O)[C@@H](O)[C@@H](O[C@H]6[C@H](O)[C@@H](O)[C@@H](O[C@H]7[C@H](O)[C@@H](O)[C@@H](O[C@H]8[C@H](O)[C@@H](O)[C@@H](O[C@H]9[C@H](O)[C@@H](O)[C@@H](O[C@H]1[C@H](O)[C@H]2O)O[C@@H]9CO)O[C@@H]8CO)O[C@@H]7CO)O[C@@H]6CO)O[C@@H]5CO)O[C@@H]4CO)O[C@@H]3CO` [γ-CD, gamma-cyclodextrin], the hemolytic activity (human erythrocytes) is given as “β-CD>α-CD>γ-CD”.

For alendronate-β-CD [ALN-β-CD], the effect on bone [5] is given as “bone-anabolic”.

In the case of “hydroxypropyl-alpha-cyclodextrin [HPaCD]”, the average wound closure (MCF-7 cells; 1 mM) is reported as 41.33%, the “wound closure (Percent Closure), replications r1-r3” value (shortened to “wound closure (Percent Closure)”) (MCF-7 cells; 1 mM) is reported as 35.00% and 41.00% and 48.00% and the average wound closure (MCF-7 cells; 2 mM) is reported as 36.00%. For the same molecule, the “wound closure (Percent Closure)” value (MCF-7 cells; 2 mM) was 40.00% and 30.00% and 38.00%, the average wound closure (MCF-7 cells; 4 mM) was 28.67% and the “wound closure (Percent Closure)” value (MCF-7 cells; 4 mM) was 28.00% and 22.00% and 36.00%. The average wound closure (MDA-MB-231 cells; 1 mM) was 53.00%, the “wound closure (Percent Closure)” value (MDA-MB-231 cells; 1 mM) was 47.00% and 53.00% and 59.00% and the average wound closure (MDA-MB-231 cells; 2 mM) was 40.00%. The “wound closure (Percent Closure)” value (MDA-MB-231 cells; 2 mM) was 40.00% and 33.00% and 47.00%, the average wound closure (MDA-MB-231 cells; 4 mM) was 31.67% and the “wound closure (Percent Closure)” value (MDA-MB-231 cells; 4 mM) was 38.00% and 32.00% and 25.00%. For the same molecule, the “inhibition at 1 mM HPaCD compared with 2 mM HPbCD” value [6] was “superior to inhibition at 2 mM HPbCD”, the migration versus concentration ([6]; 1-4 mM) was “migration decreased with higher concentration” and the “effect on migration, HPaCD compared with HPbCD” value ([6]; all cases) was “stronger effect on migration than HPbCD”. For the same molecule, the Solubility in water [7] was ~500^a g/l, the “Transport across BBB” value (BBB) was 26.7 (1 mM) % and the BBB breakdown (BBB) was 2.5 mM. For the same molecule, the cytotoxicity ([8]; Caco-2 cells) was “less cytotoxic than α-cyclodextrin”.

For maltosyl-α-cyclodextrin, the cytotoxicity [8] is given as “less cytotoxic than α-cyclodextrin”.

For methyl-β-cyclodextrin [MβCD], the “decrease in activity of BCRP/ABCG2” value [9] is given as 40%, the invasion activity [10] is given as “suppressed invasion activity” and the “sensitivity to induced cell death” value [11] is given as “more sensitive to MβCD-induced cell death than their normal counterparts”. For the same molecule, the “spheroid migration and invasion” value [12] was “inhibited”, the endocytosis (MCF7 BC cells) was “inhibited” and the migration (MCF7 BC cells) was “inhibited”. The “toxicity, invasive vs non-invasive cells” value (urothelial cancer cells) was “more toxic for invasive than for non-invasive urothelial cancer cells”, the “RTK-[PIP2]-PI3K-[PIP3]-AKT signaling” value [13] was “interfered with RTK-[PIP2]-PI3K-[PIP3]-AKT signaling” and the “growth of leukemia cell lines” value (leukemia cell lines) was “inhibited the growth”. For the same molecule, the concentration in tumor (mouse model of BC) was “higher concentration in tumor than in other cells (except kidney and liver)”, the “efficacy in mouse model of BC” value (mouse model of BC; in vivo) was “effective” and the “number of lung metastases” value [14] was “reduced the number of lung metastases”. For the same molecule, the “growth of primary effusion lymphoma” value [15] was “inhibited growth”, the “accumulation of α-synuclein” value (α-synuclein) was “reduced accumulation of α-synuclein” and the “internalization of exosomes containing integrins” value (MDA-MB-231 BC cells) was “inhibited the internalization of exosomes”.
